Values of other authors in US20240033223A1 (SICHUAN CREDIT PHARMACEUTICAL CO., LTD, priority 2020, published 2024).

Conditions: aqueous preparation (U.S. Pat. No. 4,925,860)

**Q.** For `O=C1NC(=O)C(c2ccccc2)(c2ccccc2)N1` [Impurity C, Phenytoin], which Solubility in water is on record?
**A.** water-insoluble
